Experimental data taken from ChEMBL document CHEMBL1146967, “The geminal dimethyl analogue of Flurbiprofen as a novel Abeta42 inhibitor and potential Alzheimer's disease modifying agent” (Bioorg Med Chem Lett, 2006).
pIC50: −log10 of the molar value. Active and inactive are the calls of the source. No cut-off for these calls is given here.

What was measured:
[1] = biological target: T1, Gamma-secretase (Homo sapiens) (UniProt Q96BI3+Q9NZ42+Q8WW43+P49768+Q92542+P49810); experiment: Inhibition of beta amyloid protein 42 in SH-SY5Y cell lines overexpressing SPA4CT at 600 uM; format: functional, cell-based
[2] = Inhibition of beta amyloid protein 42 in HEK cell lines overexpressing APP695 at 100 uM; format: functional; details: Homo sapiens, HEK293
[3] = test system: Mus musculus; experiment: Drug level in mouse brain at 50 mg/kg, po; format: ADME, organism-based; parameters: dose 50 mg/kg, route oral; details: in vivo, read-out: Drug uptake
[4] = Ratio of drug level in brain against plasma in mice at 50 mg/kg, po; format: ADME, organism-based; parameters: dose 50 mg/kg, route oral; details: mouse, brain and plasma, read-out: BBR
[5] = test system: Mus musculus; experiment: Decrease in beta amyloid protein 40 level in Tg2576 transgenic mouse at 21 mg/kg relative to control; format: functional; parameters: scale not given: the % may be the effect or the level left
[6] = test system: Mus musculus; experiment: Decrease in beta amyloid protein 42 level in Tg2576 transgenic mouse at 21 mg/kg relative to control; format: functional; parameters: scale not given: the % may be the effect or the level left
[7] = test system: Mus musculus; experiment: Drug level in mouse plasma at 50 mg/kg, po; format: ADME, organism-based; parameters: dose 50 mg/kg, route oral; details: in vivo, read-out: Drug uptake
[8] = biological target: T1, Gamma-secretase (Homo sapiens); details: SH-SY5Y, 300 uM
Description: Inhibition of beta amyloid protein 42 in SH-SY5Y cell lines overexpressing SPA4CT at 300 uM

[9] = test system: HEK293; experiment: Inhibition of beta amyloid protein 40 in HEK cell lines overexpressing APP695; format: functional, cell-based; details: Homo sapiens
[10] = biological target: T1, Gamma-secretase (Homo sapiens); experiment: Inhibition of beta amyloid protein 42 in SH-SY5Y cell lines overexpressing SPA4CT at 100 uM; format: functional, cell-based
[11] = biological target: T1, Gamma-secretase (Homo sapiens); experiment: Inhibition of beta amyloid protein 42 in SH-SY5Y cell lines overexpressing SPA4CT at 30 uM; format: functional, cell-based
[12] = Inhibition of beta amyloid protein 42 in HEK cell lines overexpressing APP695 at 40 uM; format: functional; details: Homo sapiens, HEK293
[13] = biological target: T1, Gamma-secretase (Homo sapiens); experiment: Inhibition of NOTCH receptor cleavage at 200 uM; format: functional
[14] = Volume of distribution in dog at 2 mg/kg, iv; format: ADME, organism-based, Canis lupus familiaris; parameters: dose 2 mg/kg, route intravenous; details: in vivo, read-out: Vdss
[15] = Half life in dog at 2 mg/kg, iv; format: ADME, organism-based, Canis lupus familiaris; parameters: dose 2 mg/kg, route intravenous; details: in vivo
[16] = Oral bioavailability in rat at 2 mg/kg, po; format: ADME, organism-based; details: in vivo
[17] = Tmax in monkey at 2 mg/kg, po; format: ADME, organism-based, Macaca mulatta; parameters: dose 2 mg/kg, route oral; details: rhesus monkey, in vivo
[18] = Volume of distribution in rat at 2 mg/kg, iv; format: ADME, organism-based; parameters: dose 2 mg/kg, route intravenous; details: in vivo, read-out: Vdss
[19] = Oral bioavailability in monkey at 2 mg/kg, po; format: ADME, organism-based, Macaca mulatta; details: rhesus monkey, in vivo
[20] = Cmax in monkey at 2 mg/kg, po; format: ADME, organism-based, Macaca mulatta; parameters: dose 2 mg/kg, route oral; details: rhesus monkey, in vivo
[21] = Volume of distribution in mouse at 2 mg/kg, iv; format: ADME, organism-based; parameters: dose 2 mg/kg, route intravenous; details: in vivo, read-out: Vdss
[22] = Half life in rat at 2 mg/kg, iv; format: ADME, organism-based; parameters: dose 2 mg/kg, route intravenous; details: in vivo
[23] = Tmax in mouse at 2 mg/kg, po; format: ADME, organism-based; parameters: dose 2 mg/kg, route oral; details: in vivo
[24] = Cmax in rat at 2 mg/kg, po; format: ADME, organism-based; parameters: dose 2 mg/kg, route oral; details: in vivo
[25] = biological target: Prostaglandin G/H synthase 1 (Homo sapiens, UniProt P23219); experiment: Inhibition of COX1 in human whole blood; format: functional, tissue-based
[26] = Cmax in mouse at 2 mg/kg, po; format: ADME, organism-based; parameters: dose 2 mg/kg, route oral; details: in vivo
[27] = Tmax in dog at 2 mg/kg, po; format: ADME, organism-based, Canis lupus familiaris; parameters: dose 2 mg/kg, route oral; details: in vivo
[28] = Clearance in mouse at 2 mg/kg, iv; format: ADME, organism-based; parameters: dose 2 mg/kg, route intravenous; details: in vivo
[29] = Half life in monkey at 2 mg/kg, iv; format: ADME, organism-based, Macaca mulatta; parameters: dose 2 mg/kg, route intravenous; details: rhesus monkey, in vivo
[30] = Oral bioavailability in mouse at 2 mg/kg, po; format: ADME, organism-based; details: in vivo
[31] = Half life in mouse at 2 mg/kg, iv; format: ADME, organism-based; parameters: dose 2 mg/kg, route intravenous; details: in vivo
[32] = Clearance in rat at 2 mg/kg, iv; format: ADME, organism-based; parameters: dose 2 mg/kg, route intravenous; details: in vivo
[33] = Oral bioavailability in dog at 2 mg/kg, po; format: ADME, organism-based, Canis lupus familiaris; details: in vivo
[34] = Clearance in dog at 2 mg/kg, iv; format: ADME, organism-based, Canis lupus familiaris; parameters: dose 2 mg/kg, route intravenous; details: in vivo
[35] = Cmax in dog at 2 mg/kg, po; format: ADME, organism-based, Canis lupus familiaris; parameters: dose 2 mg/kg, route oral; details: in vivo
[36] = Volume of distribution in monkey at 2 mg/kg, iv; format: ADME, organism-based, Macaca mulatta; parameters: dose 2 mg/kg, route intravenous; details: rhesus monkey, in vivo, read-out: Vdss
[37] = Clearance in monkey at 2 mg/kg, iv; format: ADME, organism-based, Macaca mulatta; parameters: dose 2 mg/kg, route intravenous; details: rhesus monkey, in vivo
[38] = Tmax in rat at 2 mg/kg, po; format: ADME, organism-based; parameters: dose 2 mg/kg, route oral; details: in vivo

Sequence of Prostaglandin G/H synthase 1 (P23219 whole entry): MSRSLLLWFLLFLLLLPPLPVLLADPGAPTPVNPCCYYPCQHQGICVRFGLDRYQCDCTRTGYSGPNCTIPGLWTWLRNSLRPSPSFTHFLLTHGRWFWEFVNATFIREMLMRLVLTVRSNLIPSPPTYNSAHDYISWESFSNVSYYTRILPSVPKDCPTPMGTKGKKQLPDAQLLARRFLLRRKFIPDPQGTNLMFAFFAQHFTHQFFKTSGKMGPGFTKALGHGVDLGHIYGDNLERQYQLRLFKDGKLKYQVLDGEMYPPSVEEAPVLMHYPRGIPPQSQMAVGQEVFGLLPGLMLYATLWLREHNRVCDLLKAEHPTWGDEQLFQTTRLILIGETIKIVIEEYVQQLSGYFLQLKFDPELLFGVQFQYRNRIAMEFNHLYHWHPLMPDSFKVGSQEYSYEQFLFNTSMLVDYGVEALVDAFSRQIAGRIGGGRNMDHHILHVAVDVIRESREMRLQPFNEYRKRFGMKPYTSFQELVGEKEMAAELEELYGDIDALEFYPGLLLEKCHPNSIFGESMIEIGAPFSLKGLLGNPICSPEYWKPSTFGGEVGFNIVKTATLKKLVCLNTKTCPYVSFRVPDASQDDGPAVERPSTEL

Compound: CC(C)Cc1ccc(C(C)C(=O)O)cc1 (stereo not drawn) [IBUPROFEN]
- inhibition [1]: 41%
- inhibition at 100 µM [2]: 28%
- concentration [3]: 18 µM
- Kp [4]: 0.03
- Activity [5]: 11%
- Activity [6]: 20%
- concentration [7]: 592 µM

Compound: COc1ccc2cc([C@H](C)C(=O)O)ccc2c1 [NAPROXEN]
- concentration [3]: 27 µM
- inhibition [8]: 3%
- Kp [4]: 0.03
- concentration [7]: 887 µM

Compound: COc1ccc2c(c1)c(C(C)(C)C(=O)O)c(C)n2C(=O)c1ccc(Cl)cc1
- inhibition at 100 µM [2]: 2%
- inhibition [9]: inactive

Compound: CC(=O)Nc1ccc(O)cc1 [ACETAMINOPHEN]
- concentration [3]: 43 µM
- Kp [4]: 0.68
- concentration [7]: 64 µM

Compound: C[C@@H](C(=O)O)c1ccc(-c2ccccc2)c(F)c1 [TARENFLURBIL]
- inhibition at 100 µM [2]: 51%
- concentration [3]: 41 µM
- Kp [4]: 0.04
- concentration [7]: 1190 µM
- inhibition [10]: 23%

Compound: Cc1cccc(Nc2ccccc2C(=O)O)c1C [MEFENAMIC ACID]
- concentration [3]: 2.7 µM
- Kp [4]: 0.03
- concentration [7]: 87 µM

Compound: CC1=C(CC(=O)O)c2cc(F)ccc2/C1=C\c1ccc(S(C)(=O)=O)cc1 [EXISULIND]
- inhibition [11]: 9%
- inhibition at 40 µM [12]: 0%

Compound: C[C@H](C(=O)O)c1ccc(-c2ccccc2)c(F)c1 [ESFLURBIPROFEN]
- inhibition at 100 µM [2]: 65%
- inhibition [10]: 37%

Compound: CC(C)Cc1ccc(C(C)(C)C(=O)O)cc1
- inhibition at 100 µM [2]: 3%
- inhibition [9]: inactive

Compound: CC(C)(C(=O)O)c1cccc(Oc2ccccc2)c1
- inhibition at 100 µM [2]: 0%
- inhibition [9]: inactive

Compound: O=C(O)Cc1ccccc1Nc1c(Cl)cccc1Cl
- inhibition [10]: 17%

Compound: CC(C)(C(=O)O)c1ccc(-c2ccccc2)c(F)c1
- Activity [13]: inactive
- Vd [14]: 0.11 L/kg
- half-life [15]: 11.3 h
- bioavailability [16]: 79%
- Tmax [17]: 0.25 h
- Vd [18]: 0.15 L/kg
- inhibition at 100 µM [2]: 67%
- bioavailability [19]: 90%
- inhibition [9]: inactive
- Cmax [20]: 27.3 µM
- concentration [3]: 13 µM
- Vd [21]: 0.22 L/kg
- half-life [22]: 3.4 h
- Tmax [23]: 0.25 h
- Cmax [24]: 15.2 µM
- pIC50 [25]: < 4.00
- Cmax [26]: 24.4 µM
- Tmax [27]: 0.33 h
- Kp [4]: 0.02
- Activity [5]: 13%
- clearance [28]: 0.7 mL/min/kg
- Activity [6]: 18%
- half-life [29]: 8 h
- bioavailability [30]: 81%
- concentration [7]: 849 µM
- half-life [31]: 4.6 h
- clearance [32]: 1.3 mL/min/kg
- bioavailability [33]: 87%
- clearance [34]: 0.28 mL/min/kg
- Cmax [35]: 76.4 µM
- Vd [36]: 0.3 L/kg
- clearance [37]: 3.8 mL/min/kg
- Tmax [38]: 2 h

Compound: CC(C)(C(=O)O)c1ccc2c(c1)[nH]c1ccc(Cl)cc12
- inhibition at 100 µM [2]: 40%
- inhibition [9]: inactive

Compound: CC(C(=O)O)c1cccc(Oc2ccccc2)c1 (stereo not drawn) [FENOPROFEN]
- concentration [3]: 41 µM
- Kp [4]: 0.03
- concentration [7]: 1360 µM

Compound: COc1ccc2cc(C(C)(C)C(=O)O)ccc2c1
- inhibition at 100 µM [2]: 0%
- inhibition [9]: inactive

Compound: CSc1ccc(/C=C2/C(C)=C(CC(=O)O)c3cc(F)ccc32)cc1 [SULINDAC SULFIDE]
- inhibition [11]: 73%
- concentration [3]: 1.7 µM
- Kp [4]: 0.006
- inhibition at 40 µM [12]: 54%
- concentration [7]: 296 µM

Compound: COc1ccc2c(c1)c(CC(=O)O)c(C)n2C(=O)c1ccc(Cl)cc1 [INDOMETHACIN]
- inhibition at 100 µM [2]: 73%
- concentration [3]: 3 µM
- Kp [4]: 0.01
- concentration [7]: 266 µM
- inhibition [10]: 53%
